Activity calls are given as the source filed them. No cut-off for these calls is given here.
Tests used:
[1] = biological target: Acetylcholinesterase (Electrophorus electricus, UniProt O42275)
Description: Inhibition of electric eel AChE using ATC as substrate preincubated for 15 mins followed by substrate addition by UV-spectrophotometric analysis

[2] = biological target: Cholinesterase (Equus caballus, UniProt P81908)
Description: Inhibition of horse serum BChE using BTC as substrate preincubated for 15 mins followed by substrate addition by UV-spectrophotometric analysis

[3] = tested on: PC-12; assay: Protective effect against H2O2-induced cell death in rat PC12 cells at 5 uM preincubated for 2 hrs followed by H2O2 addition for 24 hrs by MTT assay; format: functional, cell-based
[4] = tested on: PC-12; assay: Antioxidant activity in rat PC12 cells assessed as decrease of H2O2-induced ROS production at 2.5 uM preincubated for 2 hrs followed by H2O2 addition for 24 hrs by DCFH-DA /DAPI-based fluorescence assay; format: functional, cell-based
[5] = biological target: Cholinesterase (Equus caballus) (UniProt P81908); conditions: 125 to 500 nM
[6] = biological target: Acetylcholinesterase (Electrophorus electricus) (UniProt O42275); assay: Mixed-type inhibition of electric eel AChE using ATC as substrate at 1.25 to 5 uM preincubated for 15 mins followed by substrate addition by Lineweavere-Burk plot analysis
[7] = tested on: PC-12; assay: Protective effect against H2O2-induced cell death in rat PC12 cells at 1 to 5 uM preincubated for 2 hrs followed by H2O2 addition for 24 hrs by MTT assay; format: functional, cell-based
[8] = biological target: T1, Amyloid-beta precursor protein (Homo sapiens, UniProt P05067); assay: Potency index, ratio of curcumin IC50 to compound IC50 for self-mediated amyloid beta (1 to 42) (unknown origin) aggregation
[9] = biological target: Acetylcholinesterase (Electrophorus electricus) (UniProt O42275); assay: Mixed-type inhibition of electric eel AChE using ATC as substrate at 25 to 100 nM preincubated for 15 mins followed by substrate addition by Lineweavere-Burk plot analysis
[10] = biological target: Cholinesterase (Equus caballus) (UniProt P81908); assay: Mixed-type inhibition of horse serum BChE using BTC as substrate at 12.5 to 100 nM preincubated for 15 mins followed by substrate addition by Lineweavere-Burk plot analysis
[11] = species: Rattus norvegicus; assay: Cytotoxicity against rat PC12 cells assessed as reduction in cell viability at 1 to 5 uM after 2 hrs by MTT assay; format: toxicity; conditions: pc-12, 2 h
[12] = biological target: T1, Amyloid-beta precursor protein
Description: Inhibition of self-mediated amyloid beta (1 to 42) (unknown origin) aggregation after 48 hrs by thioflavin T fluorescence assay

Sequence of Acetylcholinesterase (O42275 whole entry): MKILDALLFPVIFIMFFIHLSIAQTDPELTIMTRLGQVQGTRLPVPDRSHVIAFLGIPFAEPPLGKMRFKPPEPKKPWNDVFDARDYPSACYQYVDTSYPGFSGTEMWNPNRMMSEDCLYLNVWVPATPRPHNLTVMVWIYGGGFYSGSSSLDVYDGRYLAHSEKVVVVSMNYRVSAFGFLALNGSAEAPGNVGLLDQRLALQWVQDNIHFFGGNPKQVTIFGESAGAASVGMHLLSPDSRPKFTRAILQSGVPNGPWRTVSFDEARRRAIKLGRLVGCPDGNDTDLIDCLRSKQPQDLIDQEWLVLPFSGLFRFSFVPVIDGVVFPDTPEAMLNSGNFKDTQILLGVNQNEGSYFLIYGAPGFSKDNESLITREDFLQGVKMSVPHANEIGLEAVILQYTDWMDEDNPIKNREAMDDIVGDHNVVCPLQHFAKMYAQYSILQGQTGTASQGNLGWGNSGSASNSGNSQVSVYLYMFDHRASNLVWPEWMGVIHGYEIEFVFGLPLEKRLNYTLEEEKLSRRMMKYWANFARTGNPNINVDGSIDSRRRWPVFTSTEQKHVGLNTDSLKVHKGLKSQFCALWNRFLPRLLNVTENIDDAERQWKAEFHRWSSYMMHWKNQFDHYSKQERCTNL
Sequence of Cholinesterase (P81908 whole entry): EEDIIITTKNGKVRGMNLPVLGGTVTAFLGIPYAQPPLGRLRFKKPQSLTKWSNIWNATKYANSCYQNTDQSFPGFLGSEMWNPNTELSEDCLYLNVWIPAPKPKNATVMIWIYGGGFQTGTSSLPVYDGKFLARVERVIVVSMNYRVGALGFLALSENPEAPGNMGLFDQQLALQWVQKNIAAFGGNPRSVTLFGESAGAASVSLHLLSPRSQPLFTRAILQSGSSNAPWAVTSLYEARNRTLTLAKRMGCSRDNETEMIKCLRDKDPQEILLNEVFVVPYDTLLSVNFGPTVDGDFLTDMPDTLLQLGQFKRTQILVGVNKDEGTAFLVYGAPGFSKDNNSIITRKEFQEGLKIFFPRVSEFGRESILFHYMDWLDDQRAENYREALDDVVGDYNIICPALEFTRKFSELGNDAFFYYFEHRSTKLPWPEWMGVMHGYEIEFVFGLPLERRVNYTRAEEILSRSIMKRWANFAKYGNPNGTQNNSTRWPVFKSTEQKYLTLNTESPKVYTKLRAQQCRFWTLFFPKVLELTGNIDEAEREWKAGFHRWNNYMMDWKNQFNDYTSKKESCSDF
Sequence of Acetylcholinesterase (Electrophorus electricus) (O42275 24-633 limits assumed): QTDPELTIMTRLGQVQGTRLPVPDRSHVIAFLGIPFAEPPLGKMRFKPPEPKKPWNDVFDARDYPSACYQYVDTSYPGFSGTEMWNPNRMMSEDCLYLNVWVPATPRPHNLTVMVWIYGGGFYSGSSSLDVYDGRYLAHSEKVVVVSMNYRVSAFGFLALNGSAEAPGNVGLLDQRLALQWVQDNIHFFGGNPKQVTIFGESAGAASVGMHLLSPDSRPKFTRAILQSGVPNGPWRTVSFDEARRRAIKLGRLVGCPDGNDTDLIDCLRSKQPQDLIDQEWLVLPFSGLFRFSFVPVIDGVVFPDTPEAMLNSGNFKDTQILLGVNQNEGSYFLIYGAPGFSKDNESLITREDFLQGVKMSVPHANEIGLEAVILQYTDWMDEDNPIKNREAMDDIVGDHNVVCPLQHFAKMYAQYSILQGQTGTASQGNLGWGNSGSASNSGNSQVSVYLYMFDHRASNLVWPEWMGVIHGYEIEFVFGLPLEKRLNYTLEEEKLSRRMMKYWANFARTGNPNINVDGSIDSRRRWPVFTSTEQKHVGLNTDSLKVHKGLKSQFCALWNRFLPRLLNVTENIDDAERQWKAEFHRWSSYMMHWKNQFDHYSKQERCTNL
Sequence of Cholinesterase (Equus caballus) (P81908 whole entry): as the sequence (P81908 whole entry) above
T1 sequence (P05067 whole entry): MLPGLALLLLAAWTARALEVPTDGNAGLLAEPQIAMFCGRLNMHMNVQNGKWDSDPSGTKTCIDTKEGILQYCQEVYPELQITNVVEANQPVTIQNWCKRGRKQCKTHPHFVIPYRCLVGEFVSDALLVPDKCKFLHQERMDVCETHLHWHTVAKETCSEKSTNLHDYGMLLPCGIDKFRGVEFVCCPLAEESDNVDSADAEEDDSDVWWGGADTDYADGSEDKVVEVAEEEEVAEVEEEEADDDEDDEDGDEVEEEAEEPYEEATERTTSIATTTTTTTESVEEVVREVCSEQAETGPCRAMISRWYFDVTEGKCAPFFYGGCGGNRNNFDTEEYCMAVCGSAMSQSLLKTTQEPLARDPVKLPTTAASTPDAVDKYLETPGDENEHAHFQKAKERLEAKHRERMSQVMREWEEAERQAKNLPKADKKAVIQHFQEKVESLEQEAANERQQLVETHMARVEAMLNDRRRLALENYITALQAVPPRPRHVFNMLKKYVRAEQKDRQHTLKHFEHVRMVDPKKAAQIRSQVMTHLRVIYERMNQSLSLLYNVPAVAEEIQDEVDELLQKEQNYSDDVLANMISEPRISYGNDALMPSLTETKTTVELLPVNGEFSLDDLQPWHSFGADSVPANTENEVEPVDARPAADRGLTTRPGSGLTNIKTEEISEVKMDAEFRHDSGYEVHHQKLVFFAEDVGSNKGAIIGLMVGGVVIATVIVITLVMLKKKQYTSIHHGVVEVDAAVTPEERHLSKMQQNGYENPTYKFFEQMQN

`CN(C)c1ccc(-c2cc(=O)c3ccc(OCC(=O)NCCCN4CCCC4)cc3o2)cc1` gave an IC50 [1] of 7620 nM and an IC50 [2] of 21600 nM.

In the case of `O=c1c(O)c(-c2ccc(O)c(O)c2)oc2cc(O)cc(O)c12`, the Activity [3] is reported as “Active” and the Activity [4] is reported as “Active”.

`CN(C)c1ccc(-c2cc(=O)c3ccc(OCC(=O)NCCCNc4c5c(nc6ccccc46)CCCC5)cc3o2)cc1` gave an IC50 [1] of 769 nM and an IC50 [2] of 266 nM.

With `CN(C)CCCNC(=O)COc1ccc2c(=O)cc(-c3ccc(N(C)C)cc3)oc2c1` the IC50 [1] was 11900 nM and the IC50 [2] was 13600 nM.

`CN(C)c1ccc(-c2cc(=O)c3ccc(OCC(=O)NCCCCCCCCN4CCCC4)cc3o2)cc1` was tested, and the inhibition [5] was “Active”, the inhibition [6] was “Active” and the IC50 [1] was 2300 nM. For the same molecule, the IC50 [2] was 238 nM.

Work on `CN(C)c1ccc(-c2cc(=O)c3ccc(OCC(=O)NCCCCN4CCCC4)cc3o2)cc1` yielded an IC50 [1] of 4830 nM and an IC50 [2] of 11600 nM.

`CN(C)c1ccc(-c2cc(=O)c3ccc(OCC(=O)NCCCCCCCCNc4c5c(nc6ccccc46)CCCC5)cc3o2)cc1` showed an IC50 [1] of 94.6 nM and an IC50 [2] of 24.7 nM.

`CN(C)c1ccc(-c2cc(=O)c3ccc(OCC(=O)NCCCCCCN4CCCC4)cc3o2)cc1` was tested, and the IC50 [1] was 3200 nM and the IC50 [2] was 1350 nM.

With `CN(C)c1ccc(-c2cc(=O)c3ccc(OCC(=O)NCCCCNc4c5c(nc6ccccc46)CCCC5)cc3o2)cc1` the IC50 [1] was 1460 nM and the IC50 [2] was 335 nM.

In the case of `CN(C)CCNC(=O)COc1ccc2c(=O)cc(-c3ccc(N(C)C)cc3)oc2c1`, the IC50 [1] is reported as 5240 nM and the IC50 [2] is reported as 10700 nM.

`CN(C)c1ccc(-c2cc(=O)c3ccc(OCC(=O)NCCCCCCNc4c5c(nc6ccccc46)CCCC5)cc3o2)cc1` was tested, and the Activity [3] was “Active”, the Activity [7] was “Active” and the Ratio IC50 [8] was 2. For the same molecule, the inhibition [9] was “Active”, the IC50 [1] was 59.6 nM and the inhibition [10] was “Active”. The Activity [11] was “Non-Toxic”, the IC50 [2] was 46.2 nM and the IC50 [12] was 9.47 µM. The Activity [4] was “Active”.

Work on `CN(C)c1ccc(-c2cc(=O)c3ccc(OCC(=O)NCCN4CCCC4)cc3o2)cc1` yielded an IC50 [1] of 3130 nM and an IC50 [2] of 27200 nM.

In the case of `CN(C)c1ccc(-c2cc(=O)c3ccc(OCC(=O)NCCNc4c5c(nc6ccccc46)CCCC5)cc3o2)cc1`, the IC50 [1] is reported as 418 nM and the IC50 [2] is reported as 814 nM.
